Three compounds from patent publication US20130260458A1, “METHOD OF INDUCING DIFFERENTIATION OF HUMAN PLURIPOTENT STEM CELL INTO HEPATIC PROGENITOR CELL” (NATIONAL UNIVERSITY CORPORATION CHIBA UNIVERSITY, priority 2012, published 2013) can be followed below.

Test [1] relates to Human iPS cells (201B7). Description: Induction of differentiation into hepatic progenitor cells by growth-promoting agents (real-time quantitative PCR of AFP and DLK-1). The note with it: iPS cells transfected with FOXA2, GATA4, HEX, C/EBPα three times every three days, 8th day, n=3, ± standard error, ReproFF lane = 100; for α-fetoprotein/RPL19 ratio (mRNA expression): FIG. 3-1; for DLK-1/RPL19 ratio (mRNA expression): FIG. 3-2. The class given is cell-based. The protocol: Human iPS cells (201B7, RIKEN cell bank) were seeded onto a matrigel-coated 6-well plate, and cultured in a medium, ReproFF in accordance with a conventional method under the following conditions: 37° C. and 5% carbon dioxide. A lipofection reagent, Lipofectamine LTX (registered trade mark, Life Technologies Japan Ltd.) was used to transfect 0.5 μg of expression plasmids of FOXA2, GATA4, HEX and C/EBPα, respectively.
As the expression vectors of the transcription factors, used were expression vectors (human TrueClone, OriGene Technologies, Inc., COSMO BIO co., ltd.) in which full-length cDNAs of human FOXA2, GATA4, HEX and CEBPA were each incorporated in the downstream of a potent-promoting agent derived from cytomegalovirus. In the human FOXA2 expression vector (catalog No. sc122913), the full-length cDNA coding human FoxA2 protein was inserted between EcoR1 and Sal1 restricted sites of pCMV6-XL5. In the human GATA4 expression vector (catalog No. sc124037), the full-length cDNA coding human GATA4 protein was inserted between EcoR1 and Sal1 restricted sites of pCMV6-XL4. In the human HEX expression vector (catalog No. sc321626), the full-length cDNA coding human HHEX protein was inserted between Sgf1 and Mlu1 restricted sites of pCMV6-AC. In the human CEBPA expression vector (catalog No. sc303472), the full-length cDNA coding human CEBPA protein was inserted between EcoR1 and Sal1 restricted sites of pCMV6-XL5.
Immediately before transfection, the medium to be used was changed to a medium obtained by adding oncostatin M (Wako Pure Chemical Industries, Ltd.), EGF (Wako Pure Chemical Industries, Ltd.) and retinoic acid (Wako Pure Chemical Industries, Ltd.) to the iPSm(−) medium. Here, the iPSm(−) medium corresponds to a medium obtained by eliminating a basic fibroblast growth factor from a medium for feeder cells of human iPS cells recommended by CiRA at Kyoto University. […]
The transfection of the transcription factors was repeated three times every three days, and, on the 8th day, RNA was extracted using Isogen (NIPPON GENE CO., LTD.). […] Then, the amount of expressed α-fetoprotein (AFP), which was an indicator of hepatic progenitor cells, was analyzed by the real-time quantitative PCR method using a real-time PCR analysis reagent, Fast SYBR Green Master Mix (trade name, Life Technologies Japan Ltd.). […] The amounts of α-fetoprotein (AFP) and Delta-like (DLK)-1 expressed were quantitatively determined as an indicator of hepatic progenitor cells by employing ribosome-related protein (RLP19) as internal standard (each group, n=3).
The real-time quantitative PCR was performed by using the following primers through a PCR cycle including 30 cycles of 5 seconds at 95° C. and 20 seconds at 60° C.

Test [2] concerns Human iPS cells (201B7). Description: Expression of transcription factors in iPS cells cultured with single growth-promoting agents (RT-PCR, electrophoresis). The format is cell-based. As to conditions: iPS cells in iPSm(−) medium with the growth-promoting agent added; PCR and electrophoresis, FIG. 2. How it is done:
Reverse transcriptase (Life Technologies Japan Ltd.) was used to synthesize cDNAs of iPS cells, fetal hepatic cells and adult hepatic cells from 3 μg of RNA. The cDNAs were subjected to polymerase chain reaction (PCR) using the following primers to GATA4, FOXA2, HEX, C/EBPα and C/EBPβ, respectively, and to electrophoresis using 2% low-melting agarose (Lonza) and 1×TAE, for investigations on the expression of GATA4, FOXA2, HEX, C/EBPα and C/EBNβ in the iPS cells, fetal hepatic cells and adult hepatic cells.
After electrophoresis, the 2% low-melting agarose was irradiated with ultraviolet rays at 254 nm from a UV transilluminator (UVP LLC, NLMS-20E), and a Polaroid photograph (FUJIFILM Corporation, FP-3000B) thereof was taken with a gel camera (Funakoshi DS-300) to analyze an electrophoretic pattern.
PCR cycles performed included 30 cycles of thermal denaturation: 1 minute at 94° C.; annealing: 1 minute and elongation reaction: 1 minute at 72° C.
Human iPS cells (201B7, RIKEN cell bank) were seeded onto a matrigel-coated 6-well plate, and cultured in a feeder-less medium, ReproFF (trade name, Reprocell Inc.) for culture of stem cells maintained in an undifferentiated state, without using a feeder cell, under conventional conditions: 37° C. and 5% carbon dioxide.
A medium obtained by adding a 20% knock-out serum replacement (Life Technologies Japan Ltd.), 10% Minimum Essential Amino Acids (Life Technologies Japan Ltd.), 2 mM of L-glutamine (Life Technologies Japan Ltd.) and 1 mM of 2-mercaptoethanol to a D-MEM/F12 medium (Dulbecco's Modified Eagle Medium-F12 medium, Sigma-Aldrich Japan) was used as an iPSm(−) medium.
The following growth-promoting agents were added to the iPSm(−) medium, and SOX-17, GATA6, FOXA2, GATA4, HEX, TTR and C/EBPα were expressed in a manner similar to that in Experiment 1.
As the growth-promoting agents, added were bFGF (basic fibroblast growth factor, Wako Pure Chemical Industries, Ltd.), BMP (bone morphogenetic protein)-4 (Wako Pure Chemical Industries, Ltd.), oncostatinM (Wako Pure Chemical Industries, Ltd.), an epidermal growth factor (EGF, Wako Pure Chemical Industries, Ltd.), a nerve growth factor (NGF, R & D Systems, Inc.), TGF-β, (transform growth factor-β, R& D Systems, Inc.), retinoic acid (Sigma-Aldrich Japan) and a hepatic cell growth factor (HGF, Sigma-Aldrich Japan).
RT-PCR to SOX-17, GATA6 and TTR was performed under the following conditions.

With `C[C@@H]1C[C@H]2[C@@H]3CCC4=CC(=O)C=C[C@]4(C)[C@@]3(F)[C@@H](O)C[C@]2(C)[C@@]1(O)C(=O)CO` [dexamethasone], in test [1], the “α-fetoprotein/RPL19 ratio (mRNA expression)” value is on record as 50.1±5 and the “DLK-1/RPL19 ratio (mRNA expression)” value turned out to be 208±54.
For the compound `CC1=C(/C=C/C(C)=C/C=C/C(C)=C/C(=O)O)C(C)(C)CCC1` [retinoic acid], in test [1], the “α-fetoprotein/RPL19 ratio (mRNA expression)” value is recorded as 133±58 and the “DLK-1/RPL19 ratio (mRNA expression)” value is on record as 79±40.
Regarding “TGF-β: transform growth factor-β, R&D Systems”, in test [2], the “expression of C/EBPα” value was “not observed to be expressed”, the “expression of FOXA2” value is on record as “not observed to be expressed”, the “expression of GATA4” value was “not observed to be expressed” and the “expression of GATA6” value is on record as “observed to be expressed”. The “expression of HEX” value in test [2] is listed as “not observed to be expressed”.
